We go through two compounds from patent US12624012B2, “14-chloro-β-elemene nitric oxide donor derivative and preparation method and use thereof” (HANGZHOU NORMAL UNIVERSITY, priority 2021, dated 2026).

Where two headings read alike, the source gives them in different places.

One data set concerns SW620. The data set is described as follows: In vitro anti-tumor activity evaluation test (CCK-8), SW620. In kind it is cell-based, human. The note with it: SW620, 72 h; for IC50: read-out: IC50 against different tumor cell lines. Put shortly:
(§1)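 H520 and SW620 seeded at 5.0×10^4 cells/mL, U87MG at 3.5×10^4 cells/mL, grown 24 h, then exposed to drug for 72 h at 37 °C, 5% CO2. Viability by CCK-8 (2-3 h), OD at 450 nm; growth inhibitory rates converted to IC50.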

In the next data set the test system is U87MG. As to the kind of experiment: In vitro anti-tumor activity evaluation test (CCK-8), U87MG. In kind it is cell-based, human. The note with it: U87MG, 72 h; for IC50: read-out: IC50 against different tumor cell lines. Put shortly:
as §1

The next data set concerns NCI-H520. As to the kind of experiment: In vitro anti-tumor activity evaluation test (CCK-8), NCI-H520. It is filed as cell-based, human. The note with it: NCI-H520, 72 h; for IC50: read-out: IC50 against different tumor cell lines. The essentials: as §1
Data set [1] has as its system human brain glioma U87MG-LUC. The data set is described as follows: In vivo anti-tumor activity against malignant brain glioma (in situ U87MG-LUC model). Set-up: species or system BABLc/nude mice. The conditions noted are these: for growth of malignant brain gliomas in mice: after administration for 3 weeks; for brain weight / living and physical conditions of mice / tumor volume / bioluminescence signal intensity of gliomas: versus model group; for bioluminescence signal intensity of gliomas: which increases rapidly. From the text:
• Source, germ line, strain: BABLc/nude mice, provided by Shanghai Slaughter Laboratory Animal Co., Ltd., China. • Experimental animal production license: SOCK (Shanghai) 2017-0005 • Certificate of Conformity No.: 20170005040021 • Experimental animal use license: SYXK (Su) 2017-0040 • Age: 4-5 weeks • Sex: female • Number of animals: 5 animals per group, 15 animals in total Experimental Instrument: • Small animal in vivo 3D imaging system Spectrum, PerkinElmer
The cultured human brain glioma U87MG-LUC cell suspension with a concentration of 5×10^7 cells/mL was collected and each animal was inoculated in situ with 20 μL of the cell suspension. 10% chloral hydrate was injected intraperitoneally to anesthetize the mice, and the heads of the mice were fixed with a stereotaxic instrument. The skin of the head was disinfected with an alcohol swab. The skin of the head was cut along the direction of midline of the brain at its slightly right. The right hemisphere was taken as the reference point for fontanelle, 2 mm to the right of the midline, and 1 mm in front as the entry point, and the skull was ground open with a micro-abrasive drill. The cells were fully resuspended with a gun head, a syringe was used to extract the cell suspension. A vertical needle fixed by a stereotaxic instrument was used to feed 3.5 mm and quit 0.5 mm, then stood for 1 min and slowly injected the cells. After injection, the needle was stood for 1 min and slowly withdrawn. Alcohol swabs were used to disinfect the skin, and mice were put back into the feeding cages to wake up naturally after suturing the skin with stitches.
After 14 days of cell inoculation, the animals were randomly grouped, with 5 animals in each group. At the same time, each group of nude mice began to administer drugs. The drug administration protocol is shown in the group and drug administration protocol. At the end of the experiment, the nude mice were executed immediately. The brain tissues were surgically stripped, photographed, and weighed.
Two animals in each group were selected and injected intraperitoneally with Luc bioluminescence signal substrate, 100 μL/each animal, before administration, 1 week, 2 weeks, and 3 weeks after drug administration, respectively. 10 min later, the mice were anesthetized with isoflurane and placed on black box loading platform of an instrument for in vivo imaging detection to observe the bioluminescence signal of in situ tumors in mice's brains.

Data set [2] can be described thus: In vitro NO release test (incubation with L-cysteine, OD at 550 nm). The conditions noted are these: 100 μM solution with cysteine solution, 37° C. The essentials:
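Compound solution (100 μM, before mixing) incubated 1:1 with cysteine solution at 37° C for up to 120 min, sampled over time. Aliquots reacted 15 min at 37° C with developer; absorbance at 550 nm converted to NO release via sodium nitrite calibration curve.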

As to `C=C[C@]1(C)CC[C@@H](C(=C)C)C[C@H]1C(=C)C` [β-elemene], the “Inhibitory rates against tumor cell lines” value (shortened to “Inhibitory rates”) with SW620 (1 μM) was found to be 2.5 ± 4.1%. The concentration for half-maximal inhibition (IC50) in the data set with SW620 was greater than 100 µM. The “Inhibitory rates” value in the data set with U87MG (1 μM) stood at 4.3 ± 2.2%. The IC50 with U87MG was greater than 100 µM. For the same compound, in the data set with NCI-H520 (1 μM), the “Inhibitory rates” value is 3.2 ± 0.7%. Also, in the data set with NCI-H520, the half-inhibitory concentration (IC50) is greater than 100 µM. In data set [1], the “growth of malignant brain gliomas in mice” value is recorded as “effectively inhibited”; the brain weight result was “significantly lighter than that of the model group”; the “living and physical conditions of mice” value is given as “much better than the model group”; the tumor volume entry is “significantly smaller than that in the model group”. Besides, the “bioluminescence signal intensity of gliomas” value in data set [1] is recorded as “declines dramatically”. Besides, the “inhibitory activity (bioluminescence signal of glioma)” value in data set [1] (first week of administration) was greater than 20%.

Consider `C=C[C@]1(C)CC[C@@H](C(=C)CN(C)CCOC(=O)CCCC(=O)OCC#CCOc2no[n+]([O-])c2S(=O)(=O)c2ccccc2)C[C@H]1C(=C)CCl` [Example 4], for which the NO-release concentrations in data set [2] (5 min) was 12.53 µM; in data set [2] (10 min), 14.80 µM; in data set [2] (20 min), 19.55 µM; in data set [2] (30 min), 23.6 µM; in data set [2] (60 min), 42.31 µM; in data set [2] (90 min), 66.97 µM. This compound returned an NO-release concentrations in data set [2] (120 min) of 93.18 µM. The inhibition at 1 µM in the data set with SW620 (Homo sapiens, SW-620, 1 μM, read-out: Inhibitory rates against tumor cell lines) came to 47.5 ± 3.7%; in the data set with U87MG (Homo sapiens, U-87 MG, 1 μM, read-out: Inhibitory rates against tumor cell lines), 55.5 ± 1.9%; in the data set on NCI-H520 (Homo sapiens, 1 μM, read-out: Inhibitory rates against tumor cell lines), 48.7 ± 2%. The IC50 in the data set on SW620 (Homo sapiens, SW-620) worked out at 0.858 ± 0.033 µM; with U87MG (Homo sapiens, U-87 MG), 0.369 ± 0.013 µM; in the data set on NCI-H520 (Homo sapiens), 0.719 ± 0.017 µM. Moreover, the “growth of malignant brain gliomas in mice” value in data set [1] is listed as “effectively inhibited”. Also, the “blocking of tumor growth” value in data set [1] (last week of administration (3 weeks)) was greater than 90%. Besides, the brain weight entry in data set [1] is listed as “significantly lighter than that of the model group”. The “living and physical conditions of mice” value in data set [1] is recorded as “much better than the model group”. In data set [1], the tumor volume entry is reported as “significantly smaller than that in the model group”. Besides, the “bioluminescence signal intensity of gliomas” value in data set [1] is “declines dramatically”.

As a reminder, the IC50 is the concentration that gives 50% inhibition.
